This note sets out measurements from the NIST ThermoML archive (doi:10.1016/j.jct.2016.12.036).

A word on the viscosity: it is the resistance of a fluid to flow. A word on the mass density: it is the mass of a sample divided by its volume. In general, refractive index refers to the speed of light in vacuum divided by its phase velocity in the sample.

Numbers after ± are expanded uncertainties.

For series [1] the following is noted: 298.15 K, 81.5 kPa, Liquid; for viscosity: Capillary tube (Ostwald / Ubbelohde) method; for mass density: Vibrating tube method.
A short description of series [2]: refractive index (Na D-line) (dimensionless). As to conditions: 298.15 K; 81.5 kPa; Liquid; Standard Abbe refractometry.
Series [3] in a line: excess molar enthalpy (molar enthalpy of mixing); xn = mol fraction of the nth substance listed. As to conditions: 298 K, 81.5 kPa, Liquid, Isoperibol calorimetry.

In the case of `CCCCO` [butan-1-ol], in series [1], the viscosity was 2.572 ± 0.055 mPa·s and the mass density is recorded as 806 ± 1 kg/m3. For the same compound, the refractive index in series [2] was 1.3967 ± 0.001.
In the same order, the values of `CCC(C)O` (stereo not given) [butan-2-ol] are 3.05 ± 0.067 mPa·s, 802.5 ± 1 kg/m3 and 1.3945 ± 0.0011.
For `NCCN` [ethane-1,2-diamine], in series [1], the viscosity was found to be 1.385 ± 0.029 mPa·s and the mass density is recorded as 892.8 ± 1 kg/m3. Also, the refractive index in series [2] came to 1.4537 ± 0.0011.
For the compound `NCCN` [ethane-1,2-diamine] + CC(C)O, the excess molar enthalpy in series [3] (x1 = 0.1001) was -0.209 ± 0.00263 kcal/mol; in series [3] (x1 = 0.2), -0.372 ± 0.00478 kcal/mol; in series [3] (x1 = 0.3007), -0.462 ± 0.00574 kcal/mol; in series [3] (x1 = 0.4033), -0.478 ± 0.00598 kcal/mol; in series [3] (x1 = 0.5073), -0.435 ± 0.0055 kcal/mol; in series [3] (x1 = 0.5963), -0.363 ± 0.00454 kcal/mol. Further, the excess molar enthalpy was -0.275 ± 0.00359 kcal/mol in series [3] (x1 = 0.6988), -0.179 ± 0.00232 kcal/mol in series [3] (x1 = 0.7998) and -0.0844 ± 0.0012 kcal/mol in series [3] (x1 = 0.8998).
For the compound `NCCN` [ethane-1,2-diamine] + CCC(C)O, the excess molar enthalpy in series [3] (x1 = 0.0999) was -0.204 ± 0.00263 kcal/mol; in series [3] (x1 = 0.1999), -0.369 ± 0.00454 kcal/mol; in series [3] (x1 = 0.3009) it was -0.461 ± 0.00574 kcal/mol; in series [3] (x1 = 0.4025), -0.473 ± 0.00598 kcal/mol; in series [3] (x1 = 0.5055), -0.424 ± 0.00526 kcal/mol; in series [3] (x1 = 0.6098) it was -0.338 ± 0.0043 kcal/mol. Further, the excess molar enthalpy is -0.237 ± 0.00311 kcal/mol in series [3] (x1 = 0.6982), -0.143 ± 0.00189 kcal/mol in series [3] (x1 = 0.7999) and -0.0601 ± 0.000908 kcal/mol in series [3] (x1 = 0.9).
For the compound `NCCN` [ethane-1,2-diamine] + CCCCO, the excess molar enthalpy in series [3] (x1 = 0.1003) is -0.275 ± 0.00359 kcal/mol; in series [3] (x1 = 0.2002), -0.486 ± 0.00598 kcal/mol; in series [3] (x1 = 0.3011), -0.594 ± 0.00741 kcal/mol; in series [3] (x1 = 0.4024) it was -0.6 ± 0.00741 kcal/mol; in series [3] (x1 = 0.5053), -0.535 ± 0.00669 kcal/mol; in series [3] (x1 = 0.6097), -0.428 ± 0.00526 kcal/mol. The excess molar enthalpy in series [3] (x1 = 0.6983) is -0.312 ± 0.00406 kcal/mol; in series [3] (x1 = 0.8) it was -0.192 ± 0.00239 kcal/mol; in series [3] (x1 = 0.8999), -0.0853 ± 0.00122 kcal/mol.
With `NCCN` [ethane-1,2-diamine] + CCCO, the excess molar enthalpy in series [3] (x1 = 0.1) was -0.307 ± 0.00406 kcal/mol; in series [3] (x1 = 0.199), -0.529 ± 0.00669 kcal/mol; in series [3] (x1 = 0.3043), -0.65 ± 0.00813 kcal/mol; in series [3] (x1 = 0.4066), -0.66 ± 0.00813 kcal/mol; in series [3] (x1 = 0.5106), -0.594 ± 0.00741 kcal/mol; in series [3] (x1 = 0.5944), -0.507 ± 0.00621 kcal/mol. Further, the excess molar enthalpy was -0.387 ± 0.00478 kcal/mol in series [3] (x1 = 0.697), -0.254 ± 0.00335 kcal/mol in series [3] (x1 = 0.7983) and -0.121 ± 0.00167 kcal/mol in series [3] (x1 = 0.8996).
`NCCN` [ethane-1,2-diamine] + CCO: the excess molar enthalpy in series [3] (x1 = 0.1003) is -0.354 ± 0.00454 kcal/mol; in series [3] (x1 = 0.201), -0.6 ± 0.00741 kcal/mol; in series [3] (x1 = 0.301) it was -0.72 ± 0.00884 kcal/mol; in series [3] (x1 = 0.4042), -0.735 ± 0.00908 kcal/mol; in series [3] (x1 = 0.4958), -0.688 ± 0.0086 kcal/mol; in series [3] (x1 = 0.5987) it was -0.584 ± 0.00717 kcal/mol. The excess molar enthalpy in series [3] (x1 = 0.7006) is -0.452 ± 0.00574 kcal/mol; in series [3] (x1 = 0.8007) it was -0.305 ± 0.00382 kcal/mol; in series [3] (x1 = 0.8987) it was -0.153 ± 0.00208 kcal/mol.
As for `NCCN` [ethane-1,2-diamine] + CO, the excess molar enthalpy in series [3] (x1 = 0.0995) was -0.486 ± 0.00621 kcal/mol; in series [3] (x1 = 0.1972), -0.831 ± 0.0103 kcal/mol; in series [3] (x1 = 0.295), -1.01 ± 0.0124 kcal/mol; in series [3] (x1 = 0.3909), -1.05 ± 0.0129 kcal/mol; in series [3] (x1 = 0.4934), -0.976 ± 0.012 kcal/mol; in series [3] (x1 = 0.5948), -0.834 ± 0.0103 kcal/mol. For the same compound, the excess molar enthalpy is -0.655 ± 0.00813 kcal/mol in series [3] (x1 = 0.6953), -0.449 ± 0.00574 kcal/mol in series [3] (x1 = 0.7971) and -0.225 ± 0.00311 kcal/mol in series [3] (x1 = 0.8994).
`CCO` [ethanol]: in series [1], the viscosity worked out at 1.093 ± 0.023 mPa·s and the mass density is reported as 785.2 ± 1 kg/m3. Further, the refractive index in series [2] is recorded as 1.3588 ± 0.001.
Taken in the same sequence, the figures for `CO` [methanol] were 0.573 ± 0.012 mPa·s, 786.7 ± 1 kg/m3 and 1.3263 ± 0.0011.
In the same order, the values of `CCCO` [propan-1-ol] are 1.943 ± 0.041 mPa·s, 799.5 ± 1 kg/m3 and 1.3825 ± 0.001.
On to `CC(C)O` [propan-2-ol], for which, in series [1], the viscosity was determined as 2.067 ± 0.044 mPa·s and the mass density amounted to 781 ± 1 kg/m3. For the same compound, in series [2], the refractive index came to 1.3745 ± 0.0011.
